From the supplement of paper PMC10307832

Tests used:
Experiment in all cases: relative viability (nuclei count vs DMSO), 5 days (fraction); higher = more cells survive
[1] = compound: C1=CC2=C(C=C(C(=C2N=C1)O)N=NC3=CC4=C(C=C3)C=C(C=C4)S(=O)(=O)O)S(=O)(=O)O + COc1cc2c(Oc3ccc(NC(=O)C4(C(=O)Nc5ccc(F)cc5)CC4)cc3F)ccnc2cc1OCCCN1CCOCC1 [Foretinib] (partner 0.25 µM)
In short: (§1)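 Relative viability was taken as the ratio of nuclei in treated wells to nuclei in vehicle wells. Lung cancer cell lines in 1536-well plates received compounds by pin tool one day after seeding, either one drug alone or a fixed anchor-drug dose plus five library-drug doses (not always all listed) in √10 steps. Nuclei were counted on 4× images after 5 days of treatment, and values are medians of duplicate plates.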

[2] = compound: O=C(NC1CCNCC1)c1n[nH]cc1NC(=O)c1c(Cl)cccc1Cl [AT-7519] + CC(C)C[C@H](NC(=O)[C@H](Cc1ccccc1)NC(=O)c1cnccn1)B(O)O [Bortezomib] (partner 0.002 µM)
In short: as §1

[3] = compound: O=C(NC1CCNCC1)c1n[nH]cc1NC(=O)c1c(Cl)cccc1Cl [AT-7519] + C[C@@H](Oc1cc(-c2cnn(C3CCNCC3)c2)cnc1N)c1c(Cl)ccc(F)c1Cl [Crizotinib] (partner 1 µM)
In short: as §1

[4] = compound: C1=CC2=C(C=C(C(=C2N=C1)O)N=NC3=CC4=C(C=C3)C=C(C=C4)S(=O)(=O)O)S(=O)(=O)O + Nc1nc2[nH]cc(CCc3ccc(C(=O)N[C@@H](CCC(=O)O)C(=O)O)cc3)c2c(=O)[nH]1 [Pemetrexed] (partner 0.2 µM)
In short: as §1

## UMC-11
[1]; first compound 0.08 µM
  relative viability: 1.13
[1]; first compound 0.253 µM
  relative viability: 1.04
[1]; first compound 0.8 µM
  relative viability: 0.938
[1]; first compound 2.53 µM
  relative viability: 1.05
[1]; first compound 8 µM
  relative viability: 1.01
[2]; first compound 0.01 µM
  relative viability: 1.03
[2]; first compound 0.03162 µM
  relative viability: 0.667
[2]; first compound 0.3162 µM
  relative viability: 0.427
[2]; first compound 1 µM
  relative viability: 0.359
[3]; first compound 0.01 µM
  relative viability: 0.677
[3]; first compound 0.03162 µM
  relative viability: 0.539
[3]; first compound 0.3162 µM
  relative viability: 0.302
[3]; first compound 1 µM
  relative viability: 0.13
[4]; first compound 0.08 µM
  relative viability: 0.754
[4]; first compound 0.253 µM
  relative viability: 0.853
[4]; first compound 0.8 µM
  relative viability: 0.783
[4]; first compound 2.53 µM
  relative viability: 0.717
[4]; first compound 8 µM
  relative viability: 0.768
